Measured values published in patent US8703811B2, “Small molecule inhibitors of Plasmodium falciparum dihydroorotate dehydrogenase” (Genzyme Corporation, priority 2008, dated 2014).
Values after ≈ are worked out from the molar mass of the structure shown. Like-named read-outs stand apart in the source and are kept apart here.

Experiments:
pfDHODH [1] = target: T1, pfDHODH (Plasmodium falciparum (isolate 3D7), UniProt Q08210); test: DHODH chromogen reduction (DCIP) assay, pfDHODH; type: biochemical, P. falciparum; settings: for inhibition at 50 µM: 50 μM inhibitor, 100 μM CoQD, 60 μM DCIP, read-out: % Inhibition of Product Formation Rate with 50 μM Inhibitor, CoQD
T1 sequence (Q08210 159-565 limits assumed): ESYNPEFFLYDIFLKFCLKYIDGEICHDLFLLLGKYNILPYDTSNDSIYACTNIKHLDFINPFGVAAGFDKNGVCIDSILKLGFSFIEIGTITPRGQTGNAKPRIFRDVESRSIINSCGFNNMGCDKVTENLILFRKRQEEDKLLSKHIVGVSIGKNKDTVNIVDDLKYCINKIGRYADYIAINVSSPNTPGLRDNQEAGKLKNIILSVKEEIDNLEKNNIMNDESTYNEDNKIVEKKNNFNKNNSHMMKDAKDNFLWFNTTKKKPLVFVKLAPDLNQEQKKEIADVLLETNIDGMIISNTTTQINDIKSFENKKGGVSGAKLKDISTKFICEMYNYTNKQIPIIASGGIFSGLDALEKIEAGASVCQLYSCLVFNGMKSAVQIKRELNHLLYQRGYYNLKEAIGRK
Text: Type 2 DHODH activity was monitored with either the direct assay measuring the formation of orotate or via a chromogen reduction assay using DCIP. Although the extinction coefficient and absorption wavelength are preferable for the chromogen reduction assay, the inorganic electron acceptor DCIP can be utilized by DHODH as the final electron acceptor in lieu of CoQn when the endogenous substrate is at a low concentration. As such, the direct assay was used to measure the binding affinity of pfDHODH to CoQD and L-DHO. The enzymatic reaction was performed by varying the L-DHO concentration (1-400 μM) or CoQD concentration (1-200 μM) while keeping the other substrate constant and in excess.
Substrate specificity and enzyme inhibition data was analyzed with GraphPad Prism Version 4 for Windows (GraphPad Software). Kinetic constants were calculated by non-linear regression fitting of the data to the Michaelis-Menten equation [36]. IC50 values were determined by non-linear regression fitting of the data to Equation 1: […]

P. falciparum 3D7 = test: Inhibition of in vitro P. falciparum culture, [3H]-hypoxanthine uptake, 3D7; type: cell-based; settings: Plasmodium falciparum; for IC50: read-out: 3D7 IC50
How it was run: (§1)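 Parasite growth inhibition measured as relative reduction of [3H]-hypoxanthine uptake in in vitro cultures. Values from non-linear regression fit, using relative growth velocity in place of product-formation rate.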

P. falciparum Dd2 = test: Inhibition of in vitro P. falciparum culture, [3H]-hypoxanthine uptake, Dd2; type: cell-based; settings: Plasmodium falciparum; for IC50: read-out: Dd2 IC50
How it was run: as §1

P. falciparum HB3 = test: Inhibition of in vitro P. falciparum culture, [3H]-hypoxanthine uptake, HB3; type: cell-based; settings: Plasmodium falciparum, HB3, Erythrocyte; [3H]-hypoxanthine uptake by parasite infected erythrocytes; read-out: HB3 IC50
Protocol: (§2) P. falciparum strains D10, 3D7, HB3, and Dd2 were obtained from the Malaria Research and Reference Reagent Resource Center (Manassas, Va.). The parasite strains were maintained in vitro by method of Trager and Jensen. The inhibition of P. falciparum growth in the presence of drug was assessed by the relative reduction of [^3H]-hypoxanthine uptake as previously described. Inhibition data were fitted to Equation 1 using non-linear regression analysis except that the relative velocity of parasite growth was substituted for the rate of product formation.

P. falciparum D10 = test: Inhibition of in vitro P. falciparum culture, [3H]-hypoxanthine uptake, D10; type: cell-based; settings: Plasmodium falciparum, D10, Erythrocyte; [3H]-hypoxanthine uptake by parasite infected erythrocytes; read-out: D10 IC50
Protocol: as §2

[2] = tested on: P. falciparum D10-scDHODH; test: Inhibition of transgenic D10-scDHODH parasites, [3H]-hypoxanthine uptake; type: cell-based; settings: Plasmodium falciparum, D10, read-out: D10-scDHODH IC50
Protocol: as §2
Transgenic parasites expressing scDHODH were generated as described by Painter et al. except that full length scDHODH was cloned directly into the pGem3Z vector without a GFP tag. The resultant plasmid was transfected into ring stages of P. falciparum D10 by electroporation and maintained in culture using standard methods under the selection of WR99210.

[3] = Renal Proximal Tubule Epithelial Cell Toxicity Screen; type: cell-based
Protocol: The Renal Proximal Tubule Epithelial Cell Toxicity Screen is designed to determine whether compound mixtures, breakouts or single compounds are toxic to normal renal epithelial cells. […] Basically, the screen consists of plating renal epithelial cells, exposing them to the desired compound(s) for 4 days and measuring cell viability using the Alamar Blue reagent.
Harvested Kidney Epithelial cells were diluted in REGM to 1.5×10^4 cells/mL. […] NOTE: One plate, the T=0 plate required that 20-30 wells be seeded, and all the other plates had 96 wells seeded. Plates were incubated in 37° C./5% CO2 incubator for 24 hours.
(§3) Alamar Blue solution (25 μL/well) was added to the T=0 plate and mixed. The plate was incubated in 37° C./5% CO2 incubator for 4 hours, mixed and then the fluorescence was measured. 10% Tween 20 stock (10 μL) was added into rows A-D in column 1 (positive control). DMSO (0.5 μL) was added into column 2 (negative control). Compounds were placed into designated wells for desired testing as follows:
Plates were mixed on the shaker, and then incubated in 37° C./5% CO2 incubator for 96 hours. Day 6:
Alamar Blue solution (25 μL/well) was added to the plates containing the compounds and mixed. Plates were incubated in 37° C./5% CO2 incubator for 4 hours, mixed and the fluorescence was measured.

[4] = Normal Human Dermal Fibroblast Toxicity Screen; type: cell-based; settings: human, normal human dermal fibroblasts; four days exposure, Alamar Blue; read-out: Dermal Fibroblast LC50
Protocol: The Normal Human Dermal Fibroblast Toxicity Screen Protocol is designed to determine whether compound mixtures, breakouts or single compounds are toxic to normal human dermal fibroblasts. The screen involves plating the dermal fibroblasts and then exposing them to the compounds for four days, then cell viability is measured using Alamar Blue reagent.
Harvested Dermal Fibroblast cells were diluted in Growth Media to 0.25 to 0.3×10^5 cells/mL. […] NOTE: One plate, the T=0 plate required that 20-30 wells be seeded and all the other plates had 96 wells seeded. Plates were incubated in 37° C./5% CO2 incubator for 24 hours.
as §3, with “the plate was agitated.” for “mixed.”, “plate” for “plate was incubated”, “incubator was incubated” for “incubator”, “3” for “4”, “agitated the” for “mixed”, “and” for “and then”
Plates were mixed on the shaker, then incubated in 37° C./5% CO2 incubator for 96 hours.
Alamar Blue solution (25 μL/well) was added to the plates containing the compounds, and the plates were agitated. The plates were incubated in 37° C./5% CO2 incubator for 3 hours, agitated and then the fluorescence was measured.

pfDHODH [5] = target: T1, pfDHODH; test: pfDHODH activity with FeCy as electron acceptor; settings: read-out: % Inhibition of Product Formation Rate with 50 μM Inhibitor, FeCy
Protocol: Inhibitors of DHODH, as classified by the chromogen reduction assay, were also evaluated for activity using FeCy as an electron acceptor. A final concentration of 5-50 nM DHODH, 200 μM L-DHO and 100 μM FeCy in Buffer C was used in this assay. Both the reduction of FeCy and the formation of orotate was monitored at 420 nm (ε420=1 mM^−1 cm^−1) and 290 nm (ε280=2 mM^−1 cm^−1), respectively, noting that two molecules of FeCy are reduced for one molecule of L-DHO. As with the previous assays, the reaction was performed at 25° C. and initiated with the addition of enzyme.

Solubility measurement = type: physicochemical; settings: aqueous buffer, thermodynamic from solid; read-out: Solubility
Text: Many standard techniques are known in the art to establish the solubility of a compound in a particular solvent. The following description is one such technique that could be used to determine the solubility: Equilibrium solubility measurements start with the solid form of the compound (crystalline form preferred). The powder is physically mixed with an aqueous buffer (defined pH) until equilibrium is reached. Either centrifugation or filtration can be used to separate the solution from the remaining solid. The amount dissolved in the solution can be determined by any one of many known methods including HPLC or UV/Vis spectroscopic techniques.

Permeability = type: in vitro ADME; settings: Caco-2
Protocol: Permeability assays using the Caco-2 colon carcinoma cell line are being used throughout the pharmaceutical industry to estimate the ability of potential drug compounds to cross the intestinal epithelium. Caco-2 cell permeability studies are performed using Caco-2 cell monolayers grown on microporous membranes in multiwell insert systems. With the inserts suspended in the wells of multiwell plates, test compounds can be added to either the upper (apical) or lower (basolateral) chamber to measure permeability in the absorptive (apical to basolateral) or secretive (basolateral to apical) directions. Samples are then taken from the opposite chamber at various time intervals to measure the amount of test compound that has crossed the cell monolayer. A representative method to generate permeability data similar to that in Table 3 can be found in Alsenz, J; Haenel, E. “Development of a 7-Day, 96-Well Caco-2 Permeability Assay with High-Throughput Direct UV Compound Analysis.” Pharmaceutical Research 2003 20(12): p 1961-1969.
Parallel artificial membrane permeability assay (PAMPA) utilizes a simple phospholipid-coated filter disc to measure membrane permeability. It was developed as an alternative to the low throughput. Caco-2 cell permeability assay used to correlate passive permeability with in vivo oral absorption. A representative publication disclosing this method is Kerns, E H; Di, L; Petusky, S; Farris, M; Ley, R; Jupp, P. “Combined application of parallel artificial membrane permeability assay and Caco-2 permeability assays in drug discovery.” J. Pharma Sci. 2004, 93 (6), pages 1440-53.
Cell culture methods (e.g. Caco-2, HT-29 and MDC) and physicochemical methods such as PAMPA and immobilized artificial membrane (IAM) columns are known in the art and can be used to obtain data such as that in Table 3. Hidalgo, I J; “Assessing the absorption of new pharmaceuticals.” Curr Top Med. Chem. 2001 November; 1(5): p 385-401.

Log D measurement = type: physicochemical; settings: octanol/water; read-out: LogD
Text: Many standard techniques are known in the art to establish the distribution coefficient of a compound between two particular solvents. The following description is one such technique that could be used to determine the distribution coefficient: The shake-flask method, which consists of dissolving some of the compound in a volume of octanol and water, then physically shaking the mixture and allowing the two solvents to fully separate. The concentration of the compound in each solvent is then measured. The most common method of measuring the distribution of the solute is by HPLC or UV/Vis spectroscopic techniques.

Cytochrome P450 1A2 = Cytochrome P450 1A2 (Homo sapiens (Human), UniProt P05177); type: in vitro ADME
Cytochrome P450 1A2, sequence (P05177 whole entry): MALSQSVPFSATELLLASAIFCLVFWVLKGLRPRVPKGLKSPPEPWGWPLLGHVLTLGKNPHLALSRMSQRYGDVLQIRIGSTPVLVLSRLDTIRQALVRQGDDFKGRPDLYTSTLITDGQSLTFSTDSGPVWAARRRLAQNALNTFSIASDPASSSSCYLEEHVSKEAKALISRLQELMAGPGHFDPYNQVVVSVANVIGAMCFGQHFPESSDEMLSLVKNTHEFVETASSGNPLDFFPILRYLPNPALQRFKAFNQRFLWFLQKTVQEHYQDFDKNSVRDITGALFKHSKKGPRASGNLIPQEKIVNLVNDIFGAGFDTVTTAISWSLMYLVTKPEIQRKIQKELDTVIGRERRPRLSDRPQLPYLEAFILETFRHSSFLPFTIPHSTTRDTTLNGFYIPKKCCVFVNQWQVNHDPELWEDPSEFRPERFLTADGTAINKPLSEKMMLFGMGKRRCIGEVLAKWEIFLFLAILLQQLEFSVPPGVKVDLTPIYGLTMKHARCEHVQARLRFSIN
Text: (§4) Rapid screening for cytochrome P450 inhibitors is part of the current paradigm for avoiding development of drugs likely to give clinical pharmacokinetic drug-drug interactions and associated toxicities. There are commercially available assays for such screenings. For example, BD Biosciences (http://www.bdbiosciences.com/index.shtml) provides a technical bulletin describing a detailed, step-by-step procedure for the performance of the high throughput cytochrome P450 inhibition testing method.

Cytochrome P450 2C19 = Cytochrome P450 2C19 (Homo sapiens (Human), UniProt P33261); test: Cytochrome P450 inhibition, 2C19; type: in vitro ADME
Cytochrome P450 2C19, sequence (P33261 whole entry): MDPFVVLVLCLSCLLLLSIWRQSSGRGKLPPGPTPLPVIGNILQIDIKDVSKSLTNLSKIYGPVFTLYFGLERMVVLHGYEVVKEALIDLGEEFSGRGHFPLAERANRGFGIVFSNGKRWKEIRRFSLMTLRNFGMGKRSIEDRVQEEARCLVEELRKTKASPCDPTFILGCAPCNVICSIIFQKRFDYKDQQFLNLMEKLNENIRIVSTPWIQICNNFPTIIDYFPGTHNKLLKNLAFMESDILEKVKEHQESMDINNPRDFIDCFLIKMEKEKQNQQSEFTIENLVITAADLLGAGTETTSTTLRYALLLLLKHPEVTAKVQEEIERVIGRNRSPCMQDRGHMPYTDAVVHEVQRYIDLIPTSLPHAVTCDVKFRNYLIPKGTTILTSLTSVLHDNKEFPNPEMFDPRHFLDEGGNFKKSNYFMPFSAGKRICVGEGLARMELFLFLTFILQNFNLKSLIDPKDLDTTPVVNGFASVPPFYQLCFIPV
Text: as §4

Cytochrome P450 2C9 = Cytochrome P450 2C9 (Homo sapiens (Human), UniProt P11712); test: Cytochrome P450 inhibition, 2C9; type: in vitro ADME
Cytochrome P450 2C9, sequence (P11712 whole entry): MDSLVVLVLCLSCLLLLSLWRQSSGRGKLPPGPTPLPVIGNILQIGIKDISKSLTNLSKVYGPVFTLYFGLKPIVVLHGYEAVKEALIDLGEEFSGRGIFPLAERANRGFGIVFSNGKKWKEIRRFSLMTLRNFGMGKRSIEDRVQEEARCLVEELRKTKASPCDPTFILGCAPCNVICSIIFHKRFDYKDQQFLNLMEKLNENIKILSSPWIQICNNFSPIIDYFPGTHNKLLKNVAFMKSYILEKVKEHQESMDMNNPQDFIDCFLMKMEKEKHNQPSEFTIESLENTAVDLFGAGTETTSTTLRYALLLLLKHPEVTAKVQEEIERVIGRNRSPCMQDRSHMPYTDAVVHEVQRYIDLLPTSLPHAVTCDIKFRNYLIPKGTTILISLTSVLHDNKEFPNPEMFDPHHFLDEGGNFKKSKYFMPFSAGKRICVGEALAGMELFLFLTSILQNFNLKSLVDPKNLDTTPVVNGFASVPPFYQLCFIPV
Text: as §4

Cytochrome P450 2D6 = Cytochrome P450 2D6 (Homo sapiens (Human), UniProt P10635); test: Cytochrome P450 inhibition, 2D6; type: in vitro ADME
Cytochrome P450 2D6, sequence (P10635 whole entry): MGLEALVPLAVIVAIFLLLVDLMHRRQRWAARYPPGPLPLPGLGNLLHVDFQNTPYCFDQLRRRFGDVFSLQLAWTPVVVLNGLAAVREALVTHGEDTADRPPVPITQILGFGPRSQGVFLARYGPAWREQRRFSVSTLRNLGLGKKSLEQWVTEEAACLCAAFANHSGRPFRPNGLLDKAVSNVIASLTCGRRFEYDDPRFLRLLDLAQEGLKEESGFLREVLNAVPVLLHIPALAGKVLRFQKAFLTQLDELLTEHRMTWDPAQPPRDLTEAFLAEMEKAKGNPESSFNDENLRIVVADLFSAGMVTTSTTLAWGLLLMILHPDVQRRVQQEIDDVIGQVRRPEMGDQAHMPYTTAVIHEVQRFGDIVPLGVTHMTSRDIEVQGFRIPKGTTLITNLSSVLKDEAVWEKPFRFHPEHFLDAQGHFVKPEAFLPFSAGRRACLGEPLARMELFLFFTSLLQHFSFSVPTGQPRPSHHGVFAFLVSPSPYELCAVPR
Text: as §4

Cytochrome P450 3A4 = Cytochrome P450 3A4 (Homo sapiens (Human), UniProt P08684); test: Cytochrome P450 inhibition, 3A4; type: in vitro ADME
Cytochrome P450 3A4, sequence (P08684 whole entry): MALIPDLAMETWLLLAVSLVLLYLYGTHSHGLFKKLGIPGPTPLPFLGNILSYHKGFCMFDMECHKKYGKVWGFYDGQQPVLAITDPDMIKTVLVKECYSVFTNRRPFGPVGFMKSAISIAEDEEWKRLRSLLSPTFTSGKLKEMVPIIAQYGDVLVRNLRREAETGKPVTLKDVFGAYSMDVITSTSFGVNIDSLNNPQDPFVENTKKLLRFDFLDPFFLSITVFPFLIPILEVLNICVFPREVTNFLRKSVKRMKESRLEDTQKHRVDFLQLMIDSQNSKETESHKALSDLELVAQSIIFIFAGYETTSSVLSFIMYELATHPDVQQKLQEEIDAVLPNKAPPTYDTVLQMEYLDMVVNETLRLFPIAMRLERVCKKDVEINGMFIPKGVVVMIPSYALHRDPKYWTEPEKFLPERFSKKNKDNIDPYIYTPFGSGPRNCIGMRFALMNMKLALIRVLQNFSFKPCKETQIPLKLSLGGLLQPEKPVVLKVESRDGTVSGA
Text: as §4

Hepatic clearance, human = type: in vitro ADME
Text: (§5) Clearance of drug by the liver will depend on the rate of delivery of drug to the liver (the hepatic blood flow) and on the efficiency of removal of drug which is presented to it (the extraction ratio). The hepatic clearance of compounds can be determined by standard methods known in the art. Such methods are described in, for example, Naritomi, Y; Terashita, S; Kagayama, A; Sugiyama, Y. “Utility of Hepatocytes in Predicting Drug Metabolism: Comparison of Hepatic Intrinsic Clearance in Rats and Humans in Vivo and in Vitro.” 2003, 31 (5): pages 580-588.

Hepatic clearance, rat = type: in vitro ADME
Text: as §5

[6] = pfDHODH IC50, DCIP assay, 200 μM L-DHO, 18 μM CoQD, 100 μM DCIP, 20 nM enzyme
[7] = 3D7, Erythrocyte, [3H]-hypoxanthine uptake by parasite infected erythrocytes
[8] = DD2, Erythrocyte, [3H]-hypoxanthine uptake by parasite infected erythrocytes

| Structure (SMILES) | inhibition at 50 µM (pfDHODH [1]; 200 μM L-DHO) [%] | IC50 (pfDHODH [1]; [6]) [nM] | IC50 (P. falciparum 3D7; [7]) [nM] | IC50 (P. falciparum Dd2; [8]) [nM] | IC50 (P. falciparum HB3) [nM] | IC50 (P. falciparum D10) [nM] | IC50 [2] [nM] | CC50 at 96 h [3] [nM] | CC50 at 96 h [4] [nM] | inhibition at 50 µM (pfDHODH [5]) [%] | further results |
| --- | --- | --- | --- | --- | --- | --- | --- | --- | --- | --- | --- |
| Cc1ccccc1/C=C/c1cc(O)c2ccccc2n1 [Compound 2] | 94 | 930 ± 100 | 320 | 250 | 240 | 300 | 8800 | > 62000 | > 62000 | 1.2 |  |
| CCCCCC1CCCc2c1nc1ccccc1c2O (stereo not shown) [Compound 3] | 100 | 340 ± 100 | 320 | 230 | 270 | 370 | > 10000 | > 62000 | > 62000 | 17 |  |
| Fc1cc(I)ccc1Nc1ccnc2cc(Cl)ccc12 [Compound 4] | 97 | 580 ± 100 | 1800 | 2300 | 2200 | 1000 | 980 | 49000 | 64000 | 7.7 |  |
| CCOC(=O)c1[nH]c(C)c(Cc2ccc(OCC)cc2)c1C [Compound 6] | 102 |  | 770 | 440 | 690 | 1200 | > 10000 | > 62000 | > 62000 | 4.8 |  |
| CCCNC(=O)c1ccc(N2CCN(C)CC2)s1 [Compound 10, 5-(4-methylpiperazin-1-yl)-N-propylthiophene-2-carboxamide] |  |  |  |  |  |  |  |  |  |  | IC50 (pfDHODH [1]; Table 2b, read-out: pfDHODH IC50): > 250000 nM; IC50 (pfDHODH [1]; Table 3, DCIP assay, 20 nM pfDHODH, read-out: pfDHODH IC50): > 30000 nM; EC50 (P. falciparum 3D7; 3D7, Table 2b, read-out: 3D7 EC50): > 10000 nM; IC50 (P. falciparum 3D7; 3D7, Table 3, [3H]-hypoxanthine uptake): > 10000 nM; EC50 (P. falciparum Dd2; DD2, Table 2b, read-out: Dd2 EC50): > 10000 nM; IC50 (P. falciparum Dd2; DD2, Table 3, [3H]-hypoxanthine uptake): > 10000 nM; solubility (Solubility measurement): 24 µg/mL (≈ 89.8 µM); Papp (Permeability): 11 ×10⁻⁶ cm/s; logD (Log D measurement): 1.5; Cytochrome P450 Inhibition, 1A2 (Cytochrome P450 1A2): >5.0 in 1A2 μM; Cytochrome P450 Inhibition, 2C19 (Cytochrome P450 2C19): >5.0 in 2C19 μM; Cytochrome P450 Inhibition, 2C9 (Cytochrome P450 2C9): >5.0 in 2C9 μM; Cytochrome P450 Inhibition, 2D6 (Cytochrome P450 2D6): >5.0 in 2D6 μM; Cytochrome P450 Inhibition, 3A4 (Cytochrome P450 3A4): >5.0 in 3A4 μM; microsomal CLint (Hepatic clearance, human): 8 µL/min/mg; microsomal CLint (Hepatic clearance, rat): 16 µL/min/mg |
